# Measured values as given in patent US9868698B2, “(2S,4R)-5-(5′-chloro-2′-fluorobiphenyl-4-yl)-4-(ethoxyoxalylamino)-2-hydroxymethyl-2-methylpentanoic acid” (THERAVANCE BIOPHARMA R&D IP, LLC, priority 2015, dated 2018).
# Experiments:
# [1] = IV/PO pharmacokinetic study in rats (Assay 3); type: in vivo; conditions: male, Sprague-Dawley, plasma, rat, read-out: AUClast Mean
# Procedure: (§1) Each rat or dog pharmacokinetic study began with formulation of the test compound. Appropriate masses of each test compound were added into a volume of vehicle (e.g. 5% sodium bicarbonate, 5% dextrose in water) such that the final concentration of each compound was appropriate to be dosed at 2 mL/kg. Although a homogenous suspension were acceptable for oral dosing, intravenous dosing solutions were sterile-filtered (0.2 μm) prior to dosing to ensure no particulates were administered.
# In the rat study, pre-cannulated male Sprague-Dawley rats (3 per route) between 8 and 10 weeks of age were obtained from Harlan Laboratories (Indianapolis, Ind.). Rats received either a single oral gavage or a single intravenous (via lateral tail vein) dose of the dosing solution. The final dose was typically 0.5-3 mg/kg. Serial blood samples were harvested via the cannula implanted in the jugular vein at 3 minutes, 15 minutes, 30 minutes, 1 hour, 2 hours, 4 hours, 6 hours, and 24 hours post-dose. Sampling was performed either manually or using automated blood samplers. Samples were collected into microtainer tubes containing sodium fluoride, potassium oxalate and paraoxon, and were processed to plasma by refrigerated centrifugation.
# (§2) Plasma samples were extracted with 3 volumes of MeCN containing a suitable internal standard. Extracts were reconstituted into 3 volumes of water containing 1% formic acid, and analyzed via HPLC-coupled MS/MS. Plasma concentration-time data were analyzed using the Phoenix software (Pharsight Corp., St. Louis, Mo.) to calculate pharmacokinetic parameters.
# [2] = target: NEP (Homo sapiens, UniProt P08473); experiment: In vitro enzyme inhibition assay, human NEP (Assay 1); type: biochemical; design: purchased R&D Systems 1182-ZN; conditions: read-out: human pKi (converted)
# NEP, sequence (P08473 52-750 limits assumed): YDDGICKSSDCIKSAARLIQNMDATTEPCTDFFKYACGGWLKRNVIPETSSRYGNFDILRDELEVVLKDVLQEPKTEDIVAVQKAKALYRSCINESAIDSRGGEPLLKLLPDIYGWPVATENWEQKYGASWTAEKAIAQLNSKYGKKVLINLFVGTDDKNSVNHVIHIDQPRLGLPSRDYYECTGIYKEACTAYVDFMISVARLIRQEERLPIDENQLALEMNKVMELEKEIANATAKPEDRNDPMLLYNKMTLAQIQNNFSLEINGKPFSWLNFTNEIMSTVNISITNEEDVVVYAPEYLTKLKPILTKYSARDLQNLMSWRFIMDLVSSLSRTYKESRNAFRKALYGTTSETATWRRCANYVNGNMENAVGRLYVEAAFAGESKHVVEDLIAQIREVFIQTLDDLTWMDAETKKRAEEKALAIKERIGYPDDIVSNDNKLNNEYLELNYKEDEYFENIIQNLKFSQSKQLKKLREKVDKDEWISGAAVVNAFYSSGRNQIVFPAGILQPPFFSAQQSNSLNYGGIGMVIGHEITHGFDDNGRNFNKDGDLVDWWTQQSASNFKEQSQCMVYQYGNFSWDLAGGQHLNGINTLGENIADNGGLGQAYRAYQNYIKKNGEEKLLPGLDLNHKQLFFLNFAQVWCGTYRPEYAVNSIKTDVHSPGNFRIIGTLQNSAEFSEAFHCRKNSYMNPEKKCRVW
# Procedure: (§3) The inhibitory activities at human and rat neprilysin (EC 3.4.24.11; NEP) were determined using in vitro assays as described below.
# Recombinant human NEP was obtained commercially (R&D Systems, Minneapolis, Minn., catalog number 1182-ZN). The fluorogenic peptide substrate Mca-D-Arg-Arg-Leu-Dap-(Dnp)-OH (Medeiros et al. (1997) Braz. J. Med. Biol. Res. 30:1157-62; Anaspec, San Jose, Calif.) was used.
# (§4) The assays were performed in 384-well white opaque plates at 37° C. using the fluorogenic peptide substrate at a concentration of 10 μM in Assay Buffer (50 mM HEPES, pH 7.5, 100 mM NaCl, 0.01% polyethylene glycol sorbitan monolaurate (Tween-20), 10 μM ZnSO4).
# (§5) Test compounds were assayed over the range of concentrations from 10 μM to 20 pM. Test compounds were added to the enzyme and incubated for 30 minute at 37° C. prior to initiating the reaction by the addition of substrate. Reactions were terminated after 20 minutes of incubation at 37° C. by the addition of glacial acetic acid to a final concentration of 3.6% (v/v).
# (§6) Plates were read on a fluorometer with excitation and emission wavelengths set to 320 nm and 405 nm, respectively. Inhibition constants were obtained by nonlinear regression of the data using the equation (GraphPad Software, Inc., San Diego, Calif.): v=v0/[1+(I/K′)] where v is the reaction rate, v0 is the uninhibited reaction rate, I is the inhibitor concentration and K′ is the apparent inhibition constant.
# [3] = IV/PO pharmacokinetic study in dogs (Assay 3); type: in vivo; conditions: male, beagle, plasma, dog, read-out: AUClast Mean
# Procedure: as §1
# In the dog study, male beagle dogs (3 per route) housed at Agilux Laboratories (Worcester, Mass.) and weighing between 7-12 kg received either a single oral gavage or a single intravenous (via indwelling catheter) dose of the dosing solution. The final dose was typically 0.1-2 mg/kg. Serial blood samples were harvested via direct venipuncture at 3 minutes, 15 minutes, 30 minutes, 1 hour, 2 hours, 4 hours, 6 hours, 8 hours, 12 hours, and 24 hours post-dose. All samples were collected manually into microtainer tubes containing sodium fluoride, potassium oxalate and paraoxon, and were processed to plasma by refrigerated centrifugation.
# as §2
# [4] = target: T1, Rat NEP (Rattus norvegicus, UniProt P07861); experiment: In vitro enzyme inhibition assay, rat NEP (Assay 1); type: biochemical; conditions: NEP from rat kidneys; read-out: rat pKi (converted)
# T1 construct: leaving a viscous oily precipitate containing the enriched membrane fraction; from tissue; host or cells: kidneys of adult Sprague Dawley rats (Triton X-114 enriched membrane fraction)
# T1 sequence (P07861 1-750): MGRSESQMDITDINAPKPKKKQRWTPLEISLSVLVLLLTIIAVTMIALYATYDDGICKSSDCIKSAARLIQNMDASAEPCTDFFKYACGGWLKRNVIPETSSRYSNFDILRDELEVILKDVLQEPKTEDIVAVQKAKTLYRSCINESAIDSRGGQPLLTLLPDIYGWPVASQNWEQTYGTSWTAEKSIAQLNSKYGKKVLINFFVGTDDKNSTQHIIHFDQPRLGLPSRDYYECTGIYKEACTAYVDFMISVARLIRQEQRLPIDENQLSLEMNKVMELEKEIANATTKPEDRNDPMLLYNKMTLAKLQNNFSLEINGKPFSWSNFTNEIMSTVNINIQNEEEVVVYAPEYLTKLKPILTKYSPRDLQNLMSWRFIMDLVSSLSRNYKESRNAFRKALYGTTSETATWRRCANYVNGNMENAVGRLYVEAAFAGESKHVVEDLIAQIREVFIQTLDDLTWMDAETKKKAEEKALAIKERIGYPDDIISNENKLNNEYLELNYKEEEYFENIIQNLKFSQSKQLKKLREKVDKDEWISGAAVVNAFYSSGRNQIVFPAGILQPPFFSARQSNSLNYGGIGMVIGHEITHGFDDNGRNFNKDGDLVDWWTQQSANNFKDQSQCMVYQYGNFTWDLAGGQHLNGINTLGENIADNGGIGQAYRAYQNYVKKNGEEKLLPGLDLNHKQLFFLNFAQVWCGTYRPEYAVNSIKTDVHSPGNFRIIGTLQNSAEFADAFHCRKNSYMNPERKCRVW
# Procedure: as §3
# Rat NEP was prepared from the kidneys of adult Sprague Dawley rats. Whole kidneys were washed in cold phosphate buffered saline (PBS) and brought up in ice-cold lysis buffer (1% Triton X-114, 150 mM NaCl, 50 mM tris(hydroxymethyl) aminomethane (Tris) pH 7.5; Bordier (1981) J. Biol. Chem. 256: 1604-1607) in a ratio of 5 mL of buffer for every gram of kidney. Samples were homogenized on ice using a polytron hand held tissue grinder. Homogenates were centrifuged at 1000×g in a swinging bucket rotor for 5 minutes at 3° C. The pellet was resuspended in 20 mL of ice cold lysis buffer and incubated on ice for 30 minutes. Samples (15-20 mL) were then layered onto 25 mL of ice-cold cushion buffer (6% w/v sucrose, 50 mM pH 7.5 Tris, 150 mM NaCl, 0.06%, Triton X-114), heated to 37° C. for 3-5 minutes and centrifuged at 1000×g in a swinging bucket rotor at room temperature for 3 minutes. The two upper layers were aspirated off, leaving a viscous oily precipitate containing the enriched membrane fraction. Glycerol was added to a concentration of 50% and samples were stored at −20° C. Protein concentrations were quantitated using a BCA detection system with bovine serum albumin (BSA) as a standard.
# as §4, §5, §6
# [5] = Accelerated stability study of calcium salt crystals (Example 7); type: physicochemical
# Excerpt: One challenge in pharmaceutical drug development relates to discovering a stable, crystalline form of a drug having a reasonably high melting point. The challenge of the present invention was that crystals of the free acid of Compound 1 could not be obtained. Furthermore, many crystal screens failed, with the exception of two-arginine and calcium crystals of (2S,4R)-5-(5′-chloro-2′-fluorobiphenyl-4-yl)-4-(ethoxyoxalylamino)-2-hydroxymethyl-2-methylpentanoic acid were obtained. However, the arginine crystals (see Example 1) were deliquescent at ambient conditions and were difficult to develop further. On the other hand, the calcium crystals were stable and melted around 239° C. For that reason, an accelerated stability study of Compound 1′ was conducted at the temperatures and % relative humidity (RH) reported below.
# [6] = Dynamic moisture sorption assessment; type: physicochemical
# Procedure: In one embodiment, crystalline form 1′ is characterized by the DMS isotherm in FIG. 4. This form is a non-hygroscopic solid. The total moisture gain observed is less than 1% by weight when exposed to between 5% and 90% relative humidity. No significant hysteresis is found between consecutive sorption-desorption cycles.
# DMS measurements were performed using a VTI atmospheric microbalance, SGA-100 system (VTI Corp., Hialeah, Fla. 33016). A weighed sample was used and the humidity was lowest possible value (close to 0% relative humidity) at the start of the analysis. The DMS analysis consisted of a scan rate of 5% relative humidity/step over the full humidity range of 5-90%. The DMS run was performed isothermally at 25° C.
# [7] = PO, analyte = compound dosed (prodrug)
# [8] = IV, analyte = compound dosed (active metabolite)
smiles,measurement,setting,value
"CCOC(=O)[C@](C)(CO)C[C@@H](Cc1ccc(-c2cc(Cl)ccc2F)cc1)NC(=O)C(=O)O [Comparison Compound C3, (2S,4R)-5-(5′-Chloro-2′-fluorobiphenyl-4-yl)-2-hydroxymethyl-2-methyl-4-(oxalylamino)pentanoic Acid Ethyl Ester]",AUC(0-t),[1]; [7],560 ng·h/mL
same,Ki,[2],3980 nM
same,AUC(0-t),[3]; [7],950 ng·h/mL
same,Ki,[4],2000 nM
"CCOC(=O)[C@H](O)C[C@@H](Cc1ccc(-c2cc(Cl)ccc2F)cc1)NC(=O)C(=O)O [Comparison Compound C4, (2R,4R)-5-(5′-Chloro-2′-fluorobiphenyl-4-yl)-2-hydroxy-4-(oxalylamino)pentanoic Acid Ethyl Ester]",AUC(0-t),[1]; [7],40 ng·h/mL
same,Ki,[2],15.8 nM
same,AUC(0-t),[3]; [7],480 ng·h/mL
same,Ki,[4],7.94 nM
"CCOC(=O)C(=O)N[C@H](Cc1ccc(-c2cc(Cl)ccc2F)cc1)C[C@@H](O)C(=O)O [Comparison Compound C5, (2R,4R)-5-(5′-Chloro-T-fluorobiphenyl-4-yl)-4-(ethoxyoxalylamino)-2-hydroxypentanoic Acid]",Ki,[2],0.2 nM
same,AUC(0-t),[3]; [7],29 ng·h/mL
same,Ki,[4],0.2 nM
"O=C(O)C(=O)N[C@H](Cc1ccc(-c2cc(Cl)ccc2F)cc1)C[C@@H](O)C(=O)O [Comparison Compound C6, (2R,4R)-5-(5′-Chloro-T-fluorobiphenyl-4-yl)-2-hydroxy-4-(oxalylamino)pentanoic Acid]",AUC(0-t),[1]; [8],15000 ng·h/mL
same,Ki,[2],0.2 nM
same,AUC(0-t),[3]; [8],1280 ng·h/mL
same,Ki,[4],0.158 nM
"CCOC(=O)C(=O)N[C@H](Cc1ccc(-c2cc(Cl)ccc2F)cc1)C[C@@](C)(CO)C(=O)O [Compound 1′, Calcium (2S,4R)-5-(5′-Chloro-2′-fluoro-[1,1′-biphenyl]-4-yl)-4-(2-ethoxy-2-oxoacetamido)-2-(hydroxymethyl)-2-methylpentanoate]",Assay,"[5]; 5° C., 0 months",95.0 % (w/w)
same,Purity,"[5]; 5° C., 0 months",97.3 % (a/a)
same,Assay,"[5]; 5° C., 2 months",93.4 % (w/w)
same,Purity,"[5]; 5° C., 2 months",97.6 % (a/a)
same,Assay,"[5]; 5° C., 3 months",92.4 % (w/w)
same,Purity,"[5]; 5° C., 3 months",97.5 % (a/a)
same,Assay,"[5]; 25° C., 60% RH, 0 months",95.0 % (w/w)
same,Purity,"[5]; 25° C., 60% RH, 0 months",97.3 % (a/a)
same,Assay,"[5]; 25° C., 60% RH, 2 months",94.4 % (w/w)
same,Purity,"[5]; 25° C., 60% RH, 2 months",97.3 % (a/a)
same,Assay,"[5]; 25° C., 60% RH, 3 months",92.9 % (w/w)
same,Purity,"[5]; 25° C., 60% RH, 3 months",96.8 % (a/a)
same,Assay,"[5]; 40° C., 75% RH, 0 months",95.0 % (w/w)
same,Purity,"[5]; 40° C., 75% RH, 0 months",97.3 % (a/a)
same,Assay,"[5]; 40° C., 75% RH, 1 month",95.5 % (w/w)
same,Purity,"[5]; 40° C., 75% RH, 1 month",95.9 % (a/a)
same,Assay,"[5]; 40° C., 75% RH, 2 months",92.1 % (w/w)
same,Purity,"[5]; 40° C., 75% RH, 2 months",95.3 % (a/a)
same,Assay,"[5]; 40° C., 75% RH, 3 months",92.1 % (w/w)
same,Purity,"[5]; 40° C., 75% RH, 3 months",93.9 % (a/a)
same,stability (in words),[5]; up to at least three months at the temperatures and relative humidity tested,relatively stable
same,hygroscopicity (in words),[6]; DMS isotherm,non-hygroscopic
same,total moisture gain,"[6]; between 5% and 90% relative humidity, 25° C.",less than 1 % by weight
